Test results published in article PMC12337661, “PIEZO1 mechanical insensitivity in generalized lymphatic dysplasia with the potential for pharmacological rescue” (iScience, 2025).

Key:
Experiment in all cases: Intracellular Ca2+ measurement (fura-2), T-REx-293 cells stably transfected
Type in all cases: cell-based
[1] = target: T1, R2351Q mPIEZO1 (Mus musculus, UniProt E2JF22, R2351Q)
T1 construct: expressed in transfected cells
Description: (§1) T-REx-293 cell line was transfected with pcDNA4/TO-mPIEZO1 constructs using Lipofectamine 2000 (Invitrogen) as above and treated with 200 μg.mL^−1 zeocin (InvivoGen) to select for stably transfected cells. At least two strongly expressing clonal cell lines were established and tested for each variant. All cell lines were maintained in Dulbecco’s Modified Eagle’s medium (Invitrogen) supplemented with 10% heat-inactivated fetal calf serum (Sigma-Aldrich), penicillin (50 units.mL^−1) and streptomycin (0.5 mg.mL^−1) (Sigma-Aldrich) and grown at 37°C in a humidified 5% CO2 incubator.
(§2) For intracellular Ca^2+ assays, cells were plated at 80–90% confluence in 96-well plates 24 h prior to recordings (6–8 × 10^4 cells per well). […] Cells were washed with SBS and incubated at room temperature for 20 min prior to recordings. Equal volumes of 2x concentrated compounds were injected to test for acute channel activation. Pre-incubation with compounds occurred during the 20 min prior to recordings. To expose cell membranes to hypo-osmolality, an equal volume of hypotonic SBS (containing only 35 mM NaCl) was injected onto the cells. Measurements were made on a fluorescence plate reader (Flexstation III, Molecular Devices) at room temperature (21 ± 2°C). Fura-2 was excited at 340 nm and 380 nm and emitted light collected at 510 nm, with measurements shown as the change in fluorescence (F) ratio (ΔF340/380).
(§3) KC41 (Dooku1) was prepared as described.[28] All purchased chemicals and solvents were used without further purification unless otherwise stated. All compounds were at least 95% pure by 1H NMR. 1H Nuclear Magnetic Resonance spectra were recorded at 500 MHz using a Bruker DRX 500 instrument or at 400 MHz using a Bruker DPX 400. 1H spectra are referenced based on the residual proton in the solvent (e.g., the CHCl3, 0.01% in 99.99% CDCl3). Coupling constants (J) are reported to the nearest 0.1 Hz. 13C NMR spectra were recorded at 125 MHz on 500 MHz spectrometers or at 100 MHz on 400 MHz spectrometers. LC-MS was performed on a Bruker Daltronics running a gradient of increasing acetonitrile (5–95%) in H2O both containing 0.1% formic acid at 1 mL.min^−1, on a short path C18 reverse phase column, detecting compounds with both a diode array detector and a Bruker mass spectrum analyser. HRMS was performed on a Bruker Daltonics micrOTOF using positive electrospray ionisation (ES+). Automated column chromatograph was carried out using a Biotage Isolera Four, using either Sfär Silica D or KP-Silica cartridges. HPLC was performed on an Agilent 1290 Infinity Series equipped with a UV detector and Hyperprep C18 reverse phase column. Key to NMR abbreviations: s (singlet), br s (broad singlet) d (doublet), dd (doublet of doublets), ddd (doublet of doublets of doublets), t (triplet), dt (doublet of triples), q (quartet), m (multiplet), ap. t (apparent triplet). For experiments, Yoda1 and its analogues were prepared as 10 mM stock solutions in 100% dimethyl sulfoxide (DMSO) before serial dilution in DMSO and final dilution in aqueous solution. Cells were exposed to 0.1% DMSO for all concentrations of the compounds from 0 to 10 μM.

[2] = target: T2, WT mPIEZO1 (Mus musculus, UniProt E2JF22); settings: 1.5 min exposure
T2 construct: expressed in transfected cells
Description: as §1, §2, §3

[3] = target: T3, E824V mPIEZO1 (Mus musculus, UniProt E2JF22, E824V); settings: versus WT
T3 construct: expressed in transfected cells
Description: as §1, §2, §3

[4] = target: T4, G1994D mPIEZO1 (Mus musculus, UniProt E2JF22, G1994D); settings: for Mean normalise fluorescence (Figure 5d): G1994D
T4 construct: expressed in transfected cells
Description: as §1, §2, §3

[5] = long (20 min) exposure, normalized to 3 μM Yoda1

T4 sequence (E2JF22 whole entry G1994D): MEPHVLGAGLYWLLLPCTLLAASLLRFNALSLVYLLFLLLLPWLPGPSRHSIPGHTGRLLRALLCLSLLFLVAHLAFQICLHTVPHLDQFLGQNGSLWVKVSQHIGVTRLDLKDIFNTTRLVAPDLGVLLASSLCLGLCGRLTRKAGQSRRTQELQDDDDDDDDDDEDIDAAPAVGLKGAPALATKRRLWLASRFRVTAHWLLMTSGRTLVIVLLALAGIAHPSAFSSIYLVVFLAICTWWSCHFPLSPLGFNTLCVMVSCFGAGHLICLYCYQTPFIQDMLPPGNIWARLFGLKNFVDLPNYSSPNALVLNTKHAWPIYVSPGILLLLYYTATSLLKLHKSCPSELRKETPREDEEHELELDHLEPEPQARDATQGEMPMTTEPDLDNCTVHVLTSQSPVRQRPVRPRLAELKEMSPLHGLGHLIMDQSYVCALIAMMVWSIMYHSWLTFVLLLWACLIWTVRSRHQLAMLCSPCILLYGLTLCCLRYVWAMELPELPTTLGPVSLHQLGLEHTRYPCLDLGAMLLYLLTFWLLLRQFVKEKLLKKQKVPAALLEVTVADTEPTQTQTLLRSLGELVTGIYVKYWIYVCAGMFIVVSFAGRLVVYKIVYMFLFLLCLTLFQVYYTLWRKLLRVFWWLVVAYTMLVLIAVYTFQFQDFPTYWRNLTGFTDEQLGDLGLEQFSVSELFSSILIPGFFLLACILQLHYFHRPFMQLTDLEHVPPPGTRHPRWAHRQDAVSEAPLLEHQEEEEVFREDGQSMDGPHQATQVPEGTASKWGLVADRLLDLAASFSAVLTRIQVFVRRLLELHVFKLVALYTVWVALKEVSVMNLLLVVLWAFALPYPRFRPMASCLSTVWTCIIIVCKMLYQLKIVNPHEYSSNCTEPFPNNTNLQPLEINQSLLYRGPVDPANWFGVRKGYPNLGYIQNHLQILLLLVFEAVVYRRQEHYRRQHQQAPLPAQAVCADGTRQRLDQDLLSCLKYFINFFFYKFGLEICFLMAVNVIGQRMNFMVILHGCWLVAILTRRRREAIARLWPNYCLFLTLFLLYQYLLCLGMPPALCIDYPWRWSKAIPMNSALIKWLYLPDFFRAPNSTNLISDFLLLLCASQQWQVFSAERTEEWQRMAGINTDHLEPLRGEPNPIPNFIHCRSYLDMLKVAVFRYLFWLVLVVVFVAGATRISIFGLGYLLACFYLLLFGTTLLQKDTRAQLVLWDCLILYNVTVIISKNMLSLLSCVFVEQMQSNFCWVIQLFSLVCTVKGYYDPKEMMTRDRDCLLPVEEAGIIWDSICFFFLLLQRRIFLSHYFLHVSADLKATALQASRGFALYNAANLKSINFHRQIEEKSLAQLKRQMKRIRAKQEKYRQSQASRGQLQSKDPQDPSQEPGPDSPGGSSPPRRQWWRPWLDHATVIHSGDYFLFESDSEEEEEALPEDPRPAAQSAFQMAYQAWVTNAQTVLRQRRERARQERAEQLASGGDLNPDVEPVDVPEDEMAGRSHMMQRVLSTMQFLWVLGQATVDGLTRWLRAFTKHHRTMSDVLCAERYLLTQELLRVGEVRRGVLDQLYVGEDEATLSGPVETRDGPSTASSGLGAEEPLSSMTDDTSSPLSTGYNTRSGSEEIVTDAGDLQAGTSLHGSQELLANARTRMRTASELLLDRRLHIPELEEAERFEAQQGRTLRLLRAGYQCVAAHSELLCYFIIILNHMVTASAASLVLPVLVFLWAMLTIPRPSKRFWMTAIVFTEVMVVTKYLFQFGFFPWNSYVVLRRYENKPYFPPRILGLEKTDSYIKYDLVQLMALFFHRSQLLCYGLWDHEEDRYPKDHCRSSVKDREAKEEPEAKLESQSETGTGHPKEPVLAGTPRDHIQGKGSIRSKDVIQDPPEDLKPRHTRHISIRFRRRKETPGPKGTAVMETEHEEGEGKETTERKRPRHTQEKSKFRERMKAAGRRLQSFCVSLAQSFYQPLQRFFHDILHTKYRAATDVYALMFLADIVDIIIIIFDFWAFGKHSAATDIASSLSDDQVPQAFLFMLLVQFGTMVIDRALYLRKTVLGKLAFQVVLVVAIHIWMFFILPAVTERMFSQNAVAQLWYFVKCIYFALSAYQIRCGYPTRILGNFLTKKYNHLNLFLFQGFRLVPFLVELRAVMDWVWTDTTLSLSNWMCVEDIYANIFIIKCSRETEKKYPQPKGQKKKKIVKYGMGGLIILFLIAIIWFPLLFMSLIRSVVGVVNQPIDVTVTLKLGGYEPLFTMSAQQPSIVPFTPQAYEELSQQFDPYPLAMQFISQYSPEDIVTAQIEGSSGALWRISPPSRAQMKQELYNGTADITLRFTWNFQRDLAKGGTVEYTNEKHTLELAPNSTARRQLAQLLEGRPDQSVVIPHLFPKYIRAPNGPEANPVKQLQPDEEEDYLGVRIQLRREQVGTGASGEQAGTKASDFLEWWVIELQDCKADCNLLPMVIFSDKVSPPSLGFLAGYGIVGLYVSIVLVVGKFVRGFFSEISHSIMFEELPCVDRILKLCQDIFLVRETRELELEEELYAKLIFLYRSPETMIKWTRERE
T2 sequence (E2JF22 whole entry): as the sequence (E2JF22 whole entry G1994D) above, with D1994G counted along it
T1 sequence (E2JF22 whole entry R2351Q): as the sequence (E2JF22 whole entry G1994D) above, with D1994G, R2351Q counted along it
T3 sequence (E2JF22 whole entry E824V): as the sequence (E2JF22 whole entry G1994D) above, with E824V, D1994G counted along it

## Clc1cccc(Cl)c1CSc1nnc(-c2cnccn2)s1 [Yoda1]
[1]; R2351Q, 0.3 µM, time 0 s
  Mean (Ca2+ signal time course, Figure 4f): -0.00579
[1]; R2351Q, 0.3 µM, time 5 s
  Mean (Ca2+ signal time course, Figure 4f): 0.00313
[1]; R2351Q, 0.3 µM, time 10 s
  Mean (Ca2+ signal time course, Figure 4f): -0.01466
[1]; R2351Q, 0.3 µM, time 15 s
  Mean (Ca2+ signal time course, Figure 4f): 0.00749
[1]; R2351Q, 0.3 µM, time 20 s
  Mean (Ca2+ signal time course, Figure 4f): 0.00732
[1]; R2351Q, 0.3 µM, time 25 s
  Mean (Ca2+ signal time course, Figure 4f): 0.00251
[1]; R2351Q, 0.3 µM, time 30 s
  Mean (Ca2+ signal time course, Figure 4f): -0.3502
[1]; R2351Q, 0.3 µM, time 35 s
  Mean (Ca2+ signal time course, Figure 4f): 0.104
[1]; R2351Q, 0.3 µM, time 40 s
  Mean (Ca2+ signal time course, Figure 4f): 0.09692
[1]; R2351Q, 0.3 µM, time 45 s
  Mean (Ca2+ signal time course, Figure 4f): 0.1007
[1]; R2351Q, 0.3 µM, time 50 s
  Mean (Ca2+ signal time course, Figure 4f): 0.1032
[1]; R2351Q, 0.3 µM, time 55 s
  Mean (Ca2+ signal time course, Figure 4f): 0.1237
[1]; R2351Q, 0.3 µM, time 60 s
  Mean (Ca2+ signal time course, Figure 4f): 0.09438
[1]; R2351Q, 0.3 µM, time 65 s
  Mean (Ca2+ signal time course, Figure 4f): 0.1134
[1]; R2351Q, 0.3 µM, time 70 s
  Mean (Ca2+ signal time course, Figure 4f): 0.1058
[1]; R2351Q, 0.3 µM, time 75 s
  Mean (Ca2+ signal time course, Figure 4f): 0.1024
[1]; R2351Q, 0.3 µM, time 80 s
  Mean (Ca2+ signal time course, Figure 4f): 0.1081
[1]; R2351Q, 0.3 µM, time 85 s
  Mean (Ca2+ signal time course, Figure 4f): 0.0998
[1]; R2351Q, 0.3 µM, time 90 s
  Mean (Ca2+ signal time course, Figure 4f): 0.09979
[1]; R2351Q, 0.3 µM, time 95 s
  Mean (Ca2+ signal time course, Figure 4f): 0.1117
[1]; R2351Q, 0.3 µM, time 100 s
  Mean (Ca2+ signal time course, Figure 4f): 0.1219
[1]; R2351Q, 0.3 µM, time 105 s
  Mean (Ca2+ signal time course, Figure 4f): 0.1074
[1]; R2351Q, 0.3 µM, time 110 s
  Mean (Ca2+ signal time course, Figure 4f): 0.1111
[1]; R2351Q, 0.3 µM, time 115 s
  Mean (Ca2+ signal time course, Figure 4f): 0.1145
[1]; R2351Q, 0.3 µM, time 120 s
  Mean (Ca2+ signal time course, Figure 4f): 0.1043
[1]; R2351Q, 0.3 µM, time 125 s
  Mean (Ca2+ signal time course, Figure 4f): 0.1036
[1]; R2351Q, 0.3 µM, time 130 s
  Mean (Ca2+ signal time course, Figure 4f): 0.08711
[1]; R2351Q, 3 µM, time 0 s
  Mean (Ca2+ signal time course, Figure 4f): -0.0026
[1]; R2351Q, 3 µM, time 5 s
  Mean (Ca2+ signal time course, Figure 4f): -0.00676
[1]; R2351Q, 3 µM, time 10 s
  Mean (Ca2+ signal time course, Figure 4f): -0.01186
[1]; R2351Q, 3 µM, time 15 s
  Mean (Ca2+ signal time course, Figure 4f): -0.00542
[1]; R2351Q, 3 µM, time 20 s
  Mean (Ca2+ signal time course, Figure 4f): 0.01045
[1]; R2351Q, 3 µM, time 25 s
  Mean (Ca2+ signal time course, Figure 4f): 0.0162
[1]; R2351Q, 3 µM, time 30 s
  Mean (Ca2+ signal time course, Figure 4f): -0.5301
[1]; R2351Q, 3 µM, time 35 s
  Mean (Ca2+ signal time course, Figure 4f): -0.09017
[1]; R2351Q, 3 µM, time 40 s
  Mean (Ca2+ signal time course, Figure 4f): 0.3419
[1]; R2351Q, 3 µM, time 45 s
  Mean (Ca2+ signal time course, Figure 4f): 0.4568
[1]; R2351Q, 3 µM, time 50 s
  Mean (Ca2+ signal time course, Figure 4f): 0.5783
[1]; R2351Q, 3 µM, time 55 s
  Mean (Ca2+ signal time course, Figure 4f): 0.623
[1]; R2351Q, 3 µM, time 60 s
  Mean (Ca2+ signal time course, Figure 4f): 0.705
[1]; R2351Q, 3 µM, time 65 s
  Mean (Ca2+ signal time course, Figure 4f): 0.7592
[1]; R2351Q, 3 µM, time 70 s
  Mean (Ca2+ signal time course, Figure 4f): 0.7946
[1]; R2351Q, 3 µM, time 75 s
  Mean (Ca2+ signal time course, Figure 4f): 0.8127
[1]; R2351Q, 3 µM, time 80 s
  Mean (Ca2+ signal time course, Figure 4f): 0.8608
[1]; R2351Q, 3 µM, time 85 s
  Mean (Ca2+ signal time course, Figure 4f): 0.9118
[1]; R2351Q, 3 µM, time 90 s
  Mean (Ca2+ signal time course, Figure 4f): 0.9125
[1]; R2351Q, 3 µM, time 95 s
  Mean (Ca2+ signal time course, Figure 4f): 0.9634
[1]; R2351Q, 3 µM, time 100 s
  Mean (Ca2+ signal time course, Figure 4f): 1.007
[1]; R2351Q, 3 µM, time 105 s
  Mean (Ca2+ signal time course, Figure 4f): 0.9869
[1]; R2351Q, 3 µM, time 110 s
  Mean (Ca2+ signal time course, Figure 4f): 1.018
[1]; R2351Q, 3 µM, time 115 s
  Mean (Ca2+ signal time course, Figure 4f): 0.9551
[1]; R2351Q, 3 µM, time 120 s
  Mean (Ca2+ signal time course, Figure 4f): 0.9921
[1]; R2351Q, 3 µM, time 125 s
  Mean (Ca2+ signal time course, Figure 4f): 1.006
[1]; R2351Q, 3 µM, time 130 s
  Mean (Ca2+ signal time course, Figure 4f): 0.9688
[1]; R2351Q, 20 min exposure, Yoda1 0.03 µM, Figure 4d
  Mean normalise fluorescence: 0.08092
[1]; R2351Q, 20 min exposure, Yoda1 0.1 µM, Figure 4d
  Mean normalise fluorescence: -0.0159
[1]; R2351Q, 20 min exposure, Yoda1 0.3 µM, Figure 4d
  Mean normalise fluorescence: 0.3248
[1]; R2351Q, 20 min exposure, Yoda1 1 µM, Figure 4d
  Mean normalise fluorescence: 0.9747
[1]; R2351Q, 20 min exposure, Yoda1 3 µM, Figure 4d
  Mean normalise fluorescence: 1
[1]; R2351Q, 20 min exposure, Yoda1 10 µM, Figure 4d
  Mean normalise fluorescence: 0.9987
[1]; [5]
  EC50: 420 nM
[1]; short 1.5-min exposure, 0.03 µM
  Mean normalise fluorescence: 0.00392
[1]; short 1.5-min exposure, 0.1 µM
  Mean normalise fluorescence: 5.49E-04
[1]; short 1.5-min exposure, 0.3 µM
  Mean normalise fluorescence: 0.02154
[1]; short 1.5-min exposure, 1 µM
  Mean normalise fluorescence: 0.1259
[1]; short 1.5-min exposure, 3 µM
  Mean normalise fluorescence: 0.401
[1]; short 1.5-min exposure, 5 µM
  Mean normalise fluorescence: 0.6595
[1]; short 1.5-min exposure, 10 µM
  Mean normalise fluorescence: 1
[1]; versus WT
  Effect on mPIEZO1 channel function: loss of MA: LOF; reduced Y1 potency
[2]; 0.01 µM
  Mean normalise fluorescence: 0.01111
[2]; 0.03 µM
  Mean normalise fluorescence: 0.04107
[2]; 0.1 µM
  Mean normalise fluorescence: 0.2255
[2]; 0.3 µM
  Mean normalise fluorescence: 0.6112
[2]; 1 µM
  Mean normalise fluorescence: 0.8879
[2]; 3 µM
  Mean normalise fluorescence: 0.9862
[2]; 5 µM
  Mean normalise fluorescence: 1.0356
[2]; 10 µM
  Mean normalise fluorescence: 1
[2]; fitted Hill equation
  EC50: 240 nM
[3]
  Effect on mPIEZO1 channel function: reduced Y1 potency
[4]; Yoda1 concentration 0.01 µM
  Mean normalise fluorescence (Figure 5d): 0.00218
[4]; Yoda1 concentration 0.03 µM
  Mean normalise fluorescence (Figure 5d): 0.00674
[4]; Yoda1 concentration 0.1 µM
  Mean normalise fluorescence (Figure 5d): 0.01862
[4]; Yoda1 concentration 0.3 µM
  Mean normalise fluorescence (Figure 5d): 0.1159
[4]; Yoda1 concentration 1 µM
  Mean normalise fluorescence (Figure 5d): 0.3636
[4]; Yoda1 concentration 3 µM
  Mean normalise fluorescence (Figure 5d): 0.6853
[4]; Yoda1 concentration 5 µM
  Mean normalise fluorescence (Figure 5d): 0.8762
[4]; Yoda1 concentration 10 µM
  Mean normalise fluorescence (Figure 5d): 1
[4]; [5]
  EC50: 310 nM
[4]; versus WT
  Effect on mPIEZO1 channel function: reduced MA: LOF; reduced inactivation: GOF; reduced Y1 potency
